Reference: patent publication US20230295574A1, “GINGIVAL TISSUES AND METHODS OF PREPARATION THEREOF” (National University of Singapore, priority 2020, published 2023)

Columns and labels:
[1] = tested on: Gingiva-FT gingival tissue equivalents; assay: Mucosal irritation and barrier integrity of mouthwashes on intact Gingiva-FT
Experimental: To evaluate the use of 3D cultured gingival tissue equivalents of the present invention for mucosal irritation, we investigated the impact of 2 commercially available mouthwashes. To mimic the actual use case scenario, gingival tissue equivalents (surface area 0.78 cm^2) were exposed to 130 μl alcohol-free (Listerine® Gum care Zero) or alcohol-based (Listerine® Cool Mint) mouthwashes for 30 secs, washed, and cultured. After 10 hours, the tissues were re-exposed to the respective mouthwash, washed and cultured for 24 hours. Phosphate buffered saline (PBS) and 1% sodium lauryl sulphate was used as negative and positive controls respectively. Based on the OECD TG439 guidelines, 50% cellular viability was set as threshold for classification of mucosal irritants.

[2] = tested on: lamina propria equivalents; assay: Mucosal irritation of mouthwashes on lamina propria equivalents (oral ulcer model)
Experimental: Oral ulcers are one of the most common disturbances in the oral cavity. Since, the oral ulcers is devoid of the overlying epithelium, the barrier function provided by the epithelium is lost. […] To evaluate the use of 3D cultured lamina propria equivalents as a model of oral ulcers, we investigated the impact of 2 commercially available mouthwashes for mucosal irritation. To mimic the actual use case scenario, gingival tissue equivalents (surface area 0.78 cm^2) were exposed to 130 μl alcohol-free (Listerine® Gum care Zero) or alcohol-based (Listerine® Cool Mint) mouthwashes for 30 secs, washed, and cultured. After 10 hours, the tissues were re-exposed to the respective mouthwash, washed and cultured for 24 hours. Phosphate buffered saline (PBS) and 1% sodium lauryl sulphate was used as negative and positive controls respectively. Based on the OECD TG439 guidelines, 50% cellular viability was set as threshold for classification of mucosal irritation.

[3] = tested on: Gingiva-FT gingival tissue equivalents; assay: Mucosal corrosion on Gingiva-FT (OECD TG431); type: cell-based, human; conditions: for tissue disruption: Gingiva-FT
Experimental: Some excipients used to incorporate the actives and formulate oral/dental care products and pharmaceuticals, have the potential to cause mucosal corrosion similar to caustic substances like acids and bases. […] Based on the OECD TG431 guidelines, 50% and 15% cellular viability was set as thresholds for 3 min and 60 min exposures respectively.

[4] = exposure 30 secs twice, 24 hours culture
[5] = lamina propria equivalents, exposure 30 secs twice, 24 hours culture

| Structure (SMILES) | TUNEL staining (apoptosis/cell death) [1, 4] | cytotoxicity (LDH assay) [1, 4] | tissue / epithelial disruption [1, 4] | cellular viability ([1]; exposure 30 secs, re-exposed after 10 hours, cultured 24 hours, 50% threshold (OECD TG439)) [%] | cellular viability ([2]; lamina propria equivalents (ulcer model), exposure 30 secs, re-exposed after 10 hours, cultured 24 hours, 50% threshold (OECD TG439)) [%] | TUNEL staining (apoptosis/cell death) [2, 5] | cytotoxicity (LDH assay) [2, 5] | tissue disruption [2, 5] | tissue disruption ([3]; 3 min exposure) | tissue disruption ([3]; 60 min exposure) | mucosal corrosion classification ([3]; OECD TG431) |
| --- | --- | --- | --- | --- | --- | --- | --- | --- | --- | --- | --- |
| CCCCCCCCCCCCOS(=O)(=O)[O-].[Na+] [1% sodium lauryl sulphate, sodium lauryl sulphate] | TUNEL positivity | markedly increased cytotoxicity | significant tissue disruption | < 50 | < 50 | TUNEL positivity | markedly increased cytotoxicity | significant tissue disruption | – | – | – |
| O=P(O)(O)O [37% phosphoric acid, phosphoric acid] | – | – | – | – | – | – | – | – | tissue disruption | almost complete lysis of the tissues | corrosive (category 1A) |
